Data set [1] has as its system NSCLC lesions. The following applies: human, in vivo; cited from earlier work.
For data set [2], the system named is NSCLC lesions. To be noted: human, in vivo.
Experimental: Patients were injected intravenously with ^68Ga-NOTA-WL12 (1.9–3.7 MBq/kg). To determine the optimal peptide dose required to obtain high-contrast images, an escalated nonradiolabeled WL12 mass dose was coadministered with the imaging agent. The first 2 patients received 0 μg, the next 3 received 5 ug, then 60 ug, and the final group of 3 received 120 μg. […] The first patient underwent a dynamic scan at 6 time points in 1 h. The remaining 8 patients underwent PET/CT at 1 h after injection, and 6 of those were also scanned at 2 h after injection (2 patients were unable to tolerate the full 2-h examination). […] Images were reconstructed with ordered-subset expectation maximization. […] CT data were used to correct the PET images for attenuation. Vital signs, laboratory studies, and electrocardiograms were obtained before injection, during the screening period, and 2 d after PET/CT.
Images were analyzed by 2 experienced nuclear medicine physicians. […] To compare the uptake differences between the liver, spleen, small intestine (SI), and kidney among patients coadministered with different doses of WL12, multisite measurement was applied, and the uptake was calculated as an average of the number of patients corresponding to different dose administrations separately (Supplemental Fig. 3). […]
A further data set is described as follows: in vivo. The following applies: NOD/SCID, mouse, iv, 7.4 MBq (~0.17 ug), total radioactivity.
Another data set has as its target T1, PD-L1 (CHO-hPD-L1 cells) (Homo sapiens, UniProt Q9NZQ7).
T1 construct: expressed in transfected cells
Kind of data set: In vitro cellular uptake in CHO-hPD-L1 versus CHO cells. The class given is cell-based. To be noted: CHO-hPD-L1 vs CHO cells. The text has this:
The Chinese hamster ovary (CHO) cell line was obtained from American Type Culture Collection. A CHO cell line with constitutive PD-L1 expression (CHO-hPD-L1) was generated in our laboratory and described previously ([23]). Details of the cell culture, flow cytometry analysis for PD-L1 expression, and in vitro assays are provided in the supplemental materials.

A further data set has as its system CHO-hPD-L1 tumors. Kind of data set: Small-animal PET of NOD/SCID mice bearing CHO-hPD-L1 tumors. To be noted: 50 μg blocking dose coinjected.
The target of another data set is PD-L1 (Homo sapiens, UniProt Q9NZQ7). Kind of data set: First-in-human PET/CT in advanced NSCLC patients: tumor uptake and biodistribution.
PD-L1, sequence (Q9NZQ7 19-290): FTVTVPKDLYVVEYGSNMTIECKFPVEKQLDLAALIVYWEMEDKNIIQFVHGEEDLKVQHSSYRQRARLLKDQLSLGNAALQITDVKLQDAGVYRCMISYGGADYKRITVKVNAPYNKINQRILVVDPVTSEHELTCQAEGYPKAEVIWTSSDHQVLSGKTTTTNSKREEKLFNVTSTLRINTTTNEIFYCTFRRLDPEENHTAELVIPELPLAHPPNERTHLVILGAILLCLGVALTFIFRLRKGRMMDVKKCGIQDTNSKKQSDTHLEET
Assay in data set [3]: as above
Experimental: Patients were injected intravenously with ^68Ga-NOTA-WL12 (1.9–3.7 MBq/kg). To determine the optimal peptide dose required to obtain high-contrast images, an escalated nonradiolabeled WL12 mass dose was coadministered with the imaging agent. The first 2 patients received 0 μg, the next 3 received 5 ug, then 60 ug, and the final group of 3 received 120 μg. […] The first patient underwent a dynamic scan at 6 time points in 1 h. The remaining 8 patients underwent PET/CT at 1 h after injection, and 6 of those were also scanned at 2 h after injection (2 patients were unable to tolerate the full 2-h examination). […] Images were reconstructed with ordered-subset expectation maximization. CT reconstruction used a standard method with a 512 × 512 matrix and a layer thickness of 3–5 mm. CT data were used to correct the PET images for attenuation.
Images were analyzed by 2 experienced nuclear medicine physicians. The uptake parameters of major organs, tissues, and lesions were obtained to determine the organ biodistribution. SUVlean (SUL) was obtained by standardizing SUV to the body mass, which is less dependent on body habitus ([24]). […] Accordingly, we used SULmean and percentage of injected activity to describe radiopharmaceutical uptake in normal organs. To compare the uptake differences between the liver, spleen, small intestine (SI), and kidney among patients coadministered with different doses of WL12, multisite measurement was applied, and the uptake was calculated as an average of the number of patients corresponding to different dose administrations separately (Supplemental Fig. 3). To analyze normal organ uptake at different time points, 6 patients with 1- and 2-h imaging were involved. The maximum, peak, and mean values of SUV and SUL in biopsied lesions were obtained and used to correlate with PD-L1 TPS. Tumor uptake of ^68Ga-NOTA-WL12 higher than that of blood pool (BP) was considered positive.
The following applies: human, iv.

A short description of data set [4]: Clinical safety monitoring after PET/CT. The class given is in vivo, human. Here is the method: Patients were injected intravenously with ^68Ga-NOTA-WL12 (1.9–3.7 MBq/kg). To determine the optimal peptide dose required to obtain high-contrast images, an escalated nonradiolabeled WL12 mass dose was coadministered with the imaging agent. The first 2 patients received 0 μg, the next 3 received 5 ug, then 60 ug, and the final group […] received 120 μg. […] The first patient underwent a dynamic scan at 6 time points in 1 h. The remaining 8 patients underwent PET/CT at 1 h after injection, and 6 of those were also scanned at 2 h after injection (2 patients were unable to tolerate the full 2-h examination). […] Images were reconstructed with ordered-subset expectation maximization. CT reconstruction used a standard method with a 512 × 512 matrix and a layer thickness of 3–5 mm. CT data were used to correct the PET images for attenuation. Vital signs, laboratory studies, and electrocardiograms were obtained before injection, during the screening period, and 2 d after PET/CT.

The next data set deals with CHO tumors. Kind of data set: Small-animal PET of NOD/SCID mice bearing negative control CHO tumors. It counts as in vivo.
Data set [5] can be described thus: Radiation dosimetry in patients (OLINDA/EXM). It counts as in vivo, human. To be noted: administered dose 224 ± 37 MBq, n = 4. On the procedure:
Data from 4 patients with 120 μg of coinjected WL12 were used for ^68Ga-NOTA-WL12 dosimetry analysis, and the heart contents, lungs, liver, spleen, pancreas, kidneys, uterus, urinary bladder contents, and body remainder were selected as source organs. The volumes of the source organs manually drawn on CT images were calculated, and their mean counts/mL (kBq/mL) were determined from PET images at 1 and 2 h time points. Dosimetry was estimated using OLINDA/EXM software (version 2.0; Hermes Medical Solutions AB). Detailed procedures are provided in the supplemental materials.

Setting [6] is: 0, 5, 60, 120 μg WL12 coadministered.
Setting [7] is: 6 patients with 1- and 2-h imaging.
The mark [8] stands for this setting: tumor versus lung, total radioactivity.

T1 sequence (Q9NZQ7 19-290): as above

Regarding `OC[C@H]1OC(O)[C@H]([18F])[C@@H](O)[C@@H]1O` (stereo partly drawn) [^18F-FDG], in the data set on NSCLC lesions [1], the “radiation dose of conventional PET/CT” value is listed as 7.0–14 mSv. In addition, in the data set with NSCLC lesions [2], the uptake in tumors entry is given as “intense”.
Consider `CCCC[C@H]1C(=O)N(C)[C@@H](CCCC)C(=O)N[C@@H](CCCNC(=O)CN2CCN(CC(=O)O)CCN(CC(=O)O)CC2)C(=O)N[C@H](C(=O)NCC(N)=O)CSCC(=O)N[C@@H](Cc2ccc(O)cc2)C(=O)N(C)[C@@H](C)C(=O)N[C@@H](CC(N)=O)C(=O)N2CCC[C@H]2C(=O)N[C@@H](Cc2c[nH]cn2)C(=O)N[C@@H](CC(C)C)C(=O)N2C[C@H](O)C[C@H]2C(=O)N[C@@H](Cc2c[nH]c3ccccc23)C(=O)N[C@@H](CO)C(=O)N[C@@H](Cc2cn(C)c3ccccc23)C(=O)N1C` [^68Ga-NOTA-WL12, metal not drawn], for which the tissue to tissue ratio at 2 h turned out to be 4.5 ± 0.2 in “in vivo” (tumor-to-blood-pool uptake (T/BP)), 19.1 ± 1.2 in “in vivo” (tumor-to-muscle uptake (T/M)) and 5.18 ± 2.27 in [3] (setting [8]). At PD-L1 (CHO-hPD-L1 cells), the “cellular uptake in vitro” value is on record as “PD-L1–specific uptake”. Further, in the data set on CHO-hPD-L1 tumors, the “tumor uptake with coinjected blocking dose (in vivo specificity)” value was “decreased”. Moreover, on PD-L1 (setting [6]), the “change of liver uptake with increasing coadministered precursor dose” value was “decreased”. The “change of small intestine (SI) uptake with increasing coadministered precursor dose” value on PD-L1 (setting [6]) was “increased”. At PD-L1 (setting [6]), the “change of spleen uptake with increasing coadministered precursor dose” value was “gradual decrease”. Also, at PD-L1 (0, 5, 60, 120 μg WL12 coadministered, 1 h), the “kidney and BP uptake at 1 h versus mass of WL12 used” value is given as “remained similar”. Also, at PD-L1 (setting [7]), the “change of SI uptake from 1 to 2 h” value is recorded as “significant increase”. Moreover, the “change of liver uptake from 1 to 2 h” value at PD-L1 (setting [7]) is “significant decrease”. Also, the “organ uptake pattern (biodistribution)” value at PD-L1 (NSCLC patients, PET/CT) was “mainly observed in the SI and liver”. Besides, the route of clearance entry on PD-L1 (NSCLC patients, from uptake in liver, SI and kidneys) was “primarily through the hepatobiliary system and secondarily through renal excretion”. In addition, the SUV in data set [3] (blood pool, SUVmax of blood pool (BP), patient 3, before therapy) was determined as 1.78 SUV; in data set [3] (left adrenal metastasis, SUVmax of left adrenal metastasis, patient 9, PD-L1 TPS 80%), 5.47 SUV; in [3] (primary tumor in left lung, SUVmax of primary tumor in left lung, patient 3, PD-L1 TPS 8%), 1.84 SUV; in [3] (primary tumor, SUVmax of primary tumor, patient 9, PD-L1 TPS 80%), 4.87 SUV; in [3] (right sacral metastasis, SUVmax of right sacral metastasis, patient 3, PD-L1 TPS 8%), 0.8 SUV; in [3] (tumor, SUVmax of tumor before treatment, patient 1, PD-L1 TPS 8%), 2.21 SUV. The SUV in data set [3] (tumor, SUVmax of tumor before treatment, patient 6, PD-L1 TPS 30%) was 3.05 SUV. The tissue to tissue ratio at 1 h in data set [3] (setting [8]) came out at 4.45 ± 1.89. Further, the “changes in vital signs, laboratory studies, electrocardiograms” value in [4] (before injection, screening period and 2 d after PET/CT) was “No significant changes”. In addition, the “adverse or pharmacologic effects” value in [4] (nine PET/CT examinations, 1.9–3.7 MBq/kg i.v.) is “no adverse or clinically detectable pharmacologic effects”. Besides, the “tumor uptake in negative control CHO tumors” value in the data set with CHO tumors is “minimal uptake”. For the same compound, in data set [5], the “Effective dose per patient” value is given as 4.1 mSv.

The record behind these values is paper PMC8973283, “First-in-Humans Evaluation of a PD-L1–Binding Peptide PET Radiotracer in Non–Small Cell Lung Cancer Patients” (Journal of Nuclear Medicine, 2022).
